The test relates to G3BP1 NFT2. In kind it is binding, human. The note with it: library DMS-BM; bait G3BP1 NFT2; prey CAPRIN1; AQMQGPYNFIQDSM(averaged): mean of the two overlapping peptides over the shared positions.
For the substance “AQMQGPYNFIQDSM(averaged) M3E (AQEQGPYNFIQDSM)”, the “DMS position-specific score (PSSM value) per amino-acid substitution, averaged” value stood at 0.03003.

For “AQMQGPYNFIQDSM(averaged) Q4F (AQMFGPYNFIQDSM)”, the “DMS position-specific score (PSSM value) per amino-acid substitution, averaged” value came to 0.01567.

On to “AQMQGPYNFIQDSM(averaged) F9M (AQMQGPYNMIQDSM)”, for which the “DMS position-specific score (PSSM value) per amino-acid substitution, averaged” value worked out at 0.

Consider “AQMQGPYNFIQDSM(averaged) Q11D (AQMQGPYNFIDDSM)”, for which the “DMS position-specific score (PSSM value) per amino-acid substitution, averaged” value amounted to 0.

For “AQMQGPYNFIQDSM(averaged) Y7F (AQMQGPFNFIQDSM)”, the “DMS position-specific score (PSSM value) per amino-acid substitution, averaged” value is listed as 0.03551.

As for “AQMQGPYNFIQDSM(averaged) Y7A (AQMQGPANFIQDSM)”, the “DMS position-specific score (PSSM value) per amino-acid substitution, averaged” value amounted to 0.

As to “AQMQGPYNFIQDSM(averaged) Q4L (AQMLGPYNFIQDSM)”, the “DMS position-specific score (PSSM value) per amino-acid substitution, averaged” value worked out at 0.003961.

For the substance “AQMQGPYNFIQDSM(averaged) G5S (AQMQSPYNFIQDSM)”, the “DMS position-specific score (PSSM value) per amino-acid substitution, averaged” value worked out at 0.1168.

As for “AQMQGPYNFIQDSM(averaged) N8Y (AQMQGPYYFIQDSM)”, the “DMS position-specific score (PSSM value) per amino-acid substitution, averaged” value is recorded as 0.0098.

With “AQMQGPYNFIQDSM(averaged) Q2V (AVMQGPYNFIQDSM)”, the “DMS position-specific score (PSSM value) per amino-acid substitution, averaged” value was determined as 0.04598.

Turning to “AQMQGPYNFIQDSM(averaged) S13W (AQMQGPYNFIQDWM)”, the “DMS position-specific score (PSSM value) per amino-acid substitution, averaged” value came out at 0.01323.

With “AQMQGPYNFIQDSM(averaged) S13R (AQMQGPYNFIQDRM)”, the “DMS position-specific score (PSSM value) per amino-acid substitution, averaged” value is given as 0.001343.

As for “AQMQGPYNFIQDSM(averaged) A1T (TQMQGPYNFIQDSM)”, the “DMS position-specific score (PSSM value) per amino-acid substitution, averaged” value came to 0.005821.

With “AQMQGPYNFIQDSM(averaged) G5E (AQMQEPYNFIQDSM)”, the “DMS position-specific score (PSSM value) per amino-acid substitution, averaged” value is listed as 0.000605.

“AQMQGPYNFIQDSM(averaged) D12T (AQMQGPYNFIQTSM)”: the “DMS position-specific score (PSSM value) per amino-acid substitution, averaged” value turned out to be 0.005851.

As to “AQMQGPYNFIQDSM(averaged) D12W (AQMQGPYNFIQWSM)”, the “DMS position-specific score (PSSM value) per amino-acid substitution, averaged” value came to 0.

In the case of “AQMQGPYNFIQDSM(averaged) Q4M (AQMMGPYNFIQDSM)”, the “DMS position-specific score (PSSM value) per amino-acid substitution, averaged” value amounted to 0.02121.

Turning to “AQMQGPYNFIQDSM(averaged) Q11F (AQMQGPYNFIFDSM)”, the “DMS position-specific score (PSSM value) per amino-acid substitution, averaged” value was 0.006502.

Turning to “AQMQGPYNFIQDSM(averaged) P6D (AQMQGDYNFIQDSM)”, the “DMS position-specific score (PSSM value) per amino-acid substitution, averaged” value came to 0.01341.

For “AQMQGPYNFIQDSM(averaged) M14L (AQMQGPYNFIQDSL)”, the “DMS position-specific score (PSSM value) per amino-acid substitution, averaged” value was 0.006578.

As to “AQMQGPYNFIQDSM(averaged) Q2S (ASMQGPYNFIQDSM)”, the “DMS position-specific score (PSSM value) per amino-acid substitution, averaged” value was 0.004198.

Turning to “AQMQGPYNFIQDSM(averaged) Q2Y (AYMQGPYNFIQDSM)”, the “DMS position-specific score (PSSM value) per amino-acid substitution, averaged” value worked out at 0.05198.

In the case of “AQMQGPYNFIQDSM(averaged) F9T (AQMQGPYNTIQDSM)”, the “DMS position-specific score (PSSM value) per amino-acid substitution, averaged” value turned out to be 0.

For the substance “AQMQGPYNFIQDSM(averaged) A1K (KQMQGPYNFIQDSM)”, the “DMS position-specific score (PSSM value) per amino-acid substitution, averaged” value was found to be 0.0005059.

In the case of “AQMQGPYNFIQDSM(averaged) M3Q (AQQQGPYNFIQDSM)”, the “DMS position-specific score (PSSM value) per amino-acid substitution, averaged” value came to 0.0638.

As for “AQMQGPYNFIQDSM(averaged) A1M (MQMQGPYNFIQDSM)”, the “DMS position-specific score (PSSM value) per amino-acid substitution, averaged” value is listed as 0.03265.

Take “AQMQGPYNFIQDSM(averaged) Q2D (ADMQGPYNFIQDSM)”: the “DMS position-specific score (PSSM value) per amino-acid substitution, averaged” value turned out to be 0.02749.

As for “AQMQGPYNFIQDSM(averaged) Y7W (AQMQGPWNFIQDSM)”, the “DMS position-specific score (PSSM value) per amino-acid substitution, averaged” value is 0.03599.

“AQMQGPYNFIQDSM(averaged) Q4P (AQMPGPYNFIQDSM)”: the “DMS position-specific score (PSSM value) per amino-acid substitution, averaged” value is recorded as 0.003604.

With “AQMQGPYNFIQDSM(averaged) M3I (AQIQGPYNFIQDSM)”, the “DMS position-specific score (PSSM value) per amino-acid substitution, averaged” value is 0.03359.

With “AQMQGPYNFIQDSM(averaged) G5D (AQMQDPYNFIQDSM)”, the “DMS position-specific score (PSSM value) per amino-acid substitution, averaged” value was determined as 0.001672.

As to “AQMQGPYNFIQDSM(averaged) F9A (AQMQGPYNAIQDSM)”, the “DMS position-specific score (PSSM value) per amino-acid substitution, averaged” value is on record as 0.

Turning to “AQMQGPYNFIQDSM(averaged) M14N (AQMQGPYNFIQDSN)”, the “DMS position-specific score (PSSM value) per amino-acid substitution, averaged” value amounted to 0.007055.

For the substance “AQMQGPYNFIQDSM(averaged) Q11H (AQMQGPYNFIHDSM)”, the “DMS position-specific score (PSSM value) per amino-acid substitution, averaged” value was 0.008689.

With “AQMQGPYNFIQDSM(averaged) P6K (AQMQGKYNFIQDSM)”, the “DMS position-specific score (PSSM value) per amino-acid substitution, averaged” value came out at 0.01016.

“AQMQGPYNFIQDSM(averaged) P6V (AQMQGVYNFIQDSM)”: the “DMS position-specific score (PSSM value) per amino-acid substitution, averaged” value came out at 0.006564.

“AQMQGPYNFIQDSM(averaged) Q11S (AQMQGPYNFISDSM)”: the “DMS position-specific score (PSSM value) per amino-acid substitution, averaged” value was 0.05986.

Consider “AQMQGPYNFIQDSM(averaged) S13K (AQMQGPYNFIQDKM)”, for which the “DMS position-specific score (PSSM value) per amino-acid substitution, averaged” value is on record as 0.

On to “AQMQGPYNFIQDSM(averaged) F9P (AQMQGPYNPIQDSM)”, for which the “DMS position-specific score (PSSM value) per amino-acid substitution, averaged” value was found to be 0.

For the substance “AQMQGPYNFIQDSM(averaged) I10E (AQMQGPYNFEQDSM)”, the “DMS position-specific score (PSSM value) per amino-acid substitution, averaged” value is on record as 0.0004486.

“AQMQGPYNFIQDSM(averaged) S13Q (AQMQGPYNFIQDQM)”: the “DMS position-specific score (PSSM value) per amino-acid substitution, averaged” value came out at 0.

Take “AQMQGPYNFIQDSM(averaged) Y7I (AQMQGPINFIQDSM)”: the “DMS position-specific score (PSSM value) per amino-acid substitution, averaged” value came to 0.113.

On to “AQMQGPYNFIQDSM(averaged) P6Q (AQMQGQYNFIQDSM)”, for which the “DMS position-specific score (PSSM value) per amino-acid substitution, averaged” value was determined as 0.00431.

With “AQMQGPYNFIQDSM(averaged) I10L (AQMQGPYNFLQDSM)”, the “DMS position-specific score (PSSM value) per amino-acid substitution, averaged” value was 0.1472.

Turning to “AQMQGPYNFIQDSM(averaged) Q2N (ANMQGPYNFIQDSM)”, the “DMS position-specific score (PSSM value) per amino-acid substitution, averaged” value came to 0.006268.

Regarding “AQMQGPYNFIQDSM(averaged) D12F (AQMQGPYNFIQFSM)”, the “DMS position-specific score (PSSM value) per amino-acid substitution, averaged” value is reported as 0.004771.

As for “AQMQGPYNFIQDSM(averaged) P6W (AQMQGWYNFIQDSM)”, the “DMS position-specific score (PSSM value) per amino-acid substitution, averaged” value amounted to 0.02305.

Turning to “AQMQGPYNFIQDSM(averaged) D12E (AQMQGPYNFIQESM)”, the “DMS position-specific score (PSSM value) per amino-acid substitution, averaged” value is 0.04092.

“AQMQGPYNFIQDSM(averaged) Y7H (AQMQGPHNFIQDSM)”: the “DMS position-specific score (PSSM value) per amino-acid substitution, averaged” value is listed as 0.0003057.

Consider “AQMQGPYNFIQDSM(averaged) P6Y (AQMQGYYNFIQDSM)”, for which the “DMS position-specific score (PSSM value) per amino-acid substitution, averaged” value is reported as 0.1155.

Regarding “AQMQGPYNFIQDSM(averaged) D12S (AQMQGPYNFIQSSM)”, the “DMS position-specific score (PSSM value) per amino-acid substitution, averaged” value was 0.1749.

On to “AQMQGPYNFIQDSM(averaged) M14D (AQMQGPYNFIQDSD)”, for which the “DMS position-specific score (PSSM value) per amino-acid substitution, averaged” value was 0.036.

(Values after PMC12102759 (Protein Science : A Publication of the Protein Society, 2025).)
